Source: ChEMBL document CHEMBL2390945, “Synthesis and characterization of 123I-CMICE-013: a potential SPECT myocardial perfusion imaging agent” (Bioorg Med Chem, 2013)

Tests used:
[1] = Drug uptake in left ventricle of Sprague-Dawley rat ischemia reperfusion injury model at 74 MBq, iv measured for 60 mins by TTC staining-based micro-SPECT analysis; format: ADME, organism-based, Heart left ventricle; conditions: in vivo, 1 h
[2] = Drug uptake in left ventricle of Sprague-Dawley rat left anterior descending occlusion model at 74 MBq, iv measured for 60 mins by TTC staining-based micro-SPECT analysis; format: ADME, organism-based, Heart left ventricle; conditions: in vivo, 1 h
[3] = Drug uptake in Sprague-Dawley rat parathyroid at 37 to 111 MBq, iv measured for 60 mins by TTC staining-based micro-SPECT analysis; format: ADME, organism-based, Thyroid gland; conditions: in vivo, 1 h
Thyroid gland [4] = test: Drug uptake in Sprague-Dawley rat thyroid at 37 to 111 MBq, iv measured for 60 mins by TTC staining-based micro-SPECT analysis; format: ADME, organism-based; conditions: in vivo, 1 h
Liver [5] = test: Drug uptake in Sprague-Dawley rat liver at 37 to 111 MBq, iv measured for 60 mins by TTC staining-based micro-SPECT analysis; format: ADME, organism-based; conditions: in vivo, 1 h
Lung [6] = test: Drug uptake in Sprague-Dawley rat lung at 37 to 111 MBq, iv measured for 60 mins by TTC staining-based micro-SPECT analysis; format: ADME, organism-based; conditions: in vivo, 1 h
[7] = Drug uptake in Sprague-Dawley rat myocardium at 37 to 111 MBq, iv measured for 60 mins by TTC staining-based micro-SPECT analysis; format: ADME, organism-based; conditions: in vivo, 1 h
[8] = Ratio of drug level in heart to blood in Sprague-Dawley rat at 37 to 111 MBq, iv measured at 24 hrs; format: ADME, organism-based
Thyroid gland [9] = test: Biodistribution in Sprague-Dawley rat thyroid assessed per organ at 37 to 111 MBq, iv measured at 24 hrs by gamma counting analysis; format: ADME, organism-based; conditions: in vivo
Thyroid gland [10] = test: Biodistribution in Sprague-Dawley rat thyroid at 37 to 111 MBq, iv measured at 24 hrs by gamma counting analysis; format: ADME, organism-based; conditions: in vivo
Rattus norvegicus [11] = test: Biodistribution in Sprague-Dawley rat stomach at 37 to 111 MBq, iv measured at 24 hrs by gamma counting analysis; format: ADME, organism-based; conditions: in vivo
Ovary [12] = test: Biodistribution in Sprague-Dawley rat ovary at 37 to 111 MBq, iv measured at 24 hrs by gamma counting analysis; format: ADME, organism-based, Female gonad; conditions: in vivo
Rattus norvegicus [13] = test: Biodistribution in Sprague-Dawley rat testis at 37 to 111 MBq, iv measured at 24 hrs by gamma counting analysis; format: ADME, organism-based; conditions: in vivo
Lung [14] = test: Biodistribution in Sprague-Dawley rat lung at 37 to 111 MBq, iv measured at 24 hrs by gamma counting analysis; format: ADME, organism-based; conditions: in vivo
Heart [15] = test: Biodistribution in Sprague-Dawley rat heart at 37 to 111 MBq, iv measured at 24 hrs by gamma counting analysis; format: ADME, organism-based; conditions: in vivo
Kidney [16] = test: Biodistribution in Sprague-Dawley rat kidney at 37 to 111 MBq, iv measured at 24 hrs by gamma counting analysis; format: ADME, organism-based; conditions: in vivo
Intestine [17] = test: Biodistribution in Sprague-Dawley rat intestine at 37 to 111 MBq, iv measured at 24 hrs by gamma counting analysis; format: ADME, organism-based; conditions: in vivo
Brain [18] = test: Biodistribution in Sprague-Dawley rat brain at 37 to 111 MBq, iv measured at 24 hrs by gamma counting analysis; format: ADME, organism-based; conditions: in vivo
Blood [19] = test: Biodistribution in Sprague-Dawley rat blood at 37 to 111 MBq, iv measured at 24 hrs by gamma counting analysis; format: ADME, organism-based; conditions: in vivo
Spleen [20] = test: Biodistribution in Sprague-Dawley rat spleen at 37 to 111 MBq, iv measured at 24 hrs by gamma counting analysis; format: ADME, organism-based; conditions: in vivo
Muscle tissue [21] = test: Biodistribution in Sprague-Dawley rat muscle at 37 to 111 MBq, iv measured at 24 hrs by gamma counting analysis; format: ADME, organism-based; conditions: in vivo
Femur [22] = test: Biodistribution in Sprague-Dawley rat femur at 37 to 111 MBq, iv measured at 24 hrs by gamma counting analysis; format: ADME, organism-based; conditions: in vivo
Liver [23] = test: Biodistribution in Sprague-Dawley rat liver at 37 to 111 MBq, iv measured at 24 hrs by gamma counting analysis; format: ADME, organism-based; conditions: in vivo
Rattus norvegicus [24] = test: Biodistribution in Sprague-Dawley rat urinary bladder at 37 to 111 MBq, iv measured at 24 hrs by gamma counting analysis; format: ADME, organism-based; conditions: in vivo
[25] = Ratio of drug level in heart to blood in Sprague-Dawley rat at 37 to 111 MBq, iv measured at 2 hrs; format: ADME, organism-based
Thyroid gland [26] = test: Biodistribution in Sprague-Dawley rat thyroid assessed per organ at 37 to 111 MBq, iv measured at 2 hrs by gamma counting analysis; format: ADME, organism-based; conditions: in vivo
Thyroid gland [27] = test: Biodistribution in Sprague-Dawley rat thyroid at 37 to 111 MBq, iv measured at 2 hrs by gamma counting analysis; format: ADME, organism-based; conditions: in vivo
Rattus norvegicus [28] = test: Biodistribution in Sprague-Dawley rat stomach at 37 to 111 MBq, iv measured at 2 hrs by gamma counting analysis; format: ADME, organism-based; conditions: in vivo
Ovary [29] = test: Biodistribution in Sprague-Dawley rat ovary at 37 to 111 MBq, iv measured at 2 hrs by gamma counting analysis; format: ADME, organism-based, Female gonad; conditions: in vivo
Rattus norvegicus [30] = test: Biodistribution in Sprague-Dawley rat testis at 37 to 111 MBq, iv measured at 2 hrs by gamma counting analysis; format: ADME, organism-based; conditions: in vivo
Lung [31] = test: Biodistribution in Sprague-Dawley rat lung at 37 to 111 MBq, iv measured at 2 hrs by gamma counting analysis; format: ADME, organism-based; conditions: in vivo
Heart [32] = test: Biodistribution in Sprague-Dawley rat heart at 37 to 111 MBq, iv measured at 2 hrs by gamma counting analysis; format: ADME, organism-based; conditions: in vivo
Kidney [33] = test: Biodistribution in Sprague-Dawley rat kidney at 37 to 111 MBq, iv measured at 2 hrs by gamma counting analysis; format: ADME, organism-based; conditions: in vivo
Intestine [34] = test: Biodistribution in Sprague-Dawley rat intestine at 37 to 111 MBq, iv measured at 2 hrs by gamma counting analysis; format: ADME, organism-based; conditions: in vivo
Brain [35] = test: Biodistribution in Sprague-Dawley rat brain at 37 to 111 MBq, iv measured at 2 hrs by gamma counting analysis; format: ADME, organism-based; conditions: in vivo
Blood [36] = test: Biodistribution in Sprague-Dawley rat blood at 37 to 111 MBq, iv measured at 2 hrs by gamma counting analysis; format: ADME, organism-based; conditions: in vivo
Muscle tissue [37] = test: Biodistribution in Sprague-Dawley rat muscle at 37 to 111 MBq, iv measured at 2 hrs by gamma counting analysis; format: ADME, organism-based; conditions: in vivo
Femur [38] = test: Biodistribution in Sprague-Dawley rat femur at 37 to 111 MBq, iv measured at 2 hrs by gamma counting analysis; format: ADME, organism-based; conditions: in vivo
Liver [39] = test: Biodistribution in Sprague-Dawley rat liver at 37 to 111 MBq, iv measured at 2 hrs by gamma counting analysis; format: ADME, organism-based; conditions: in vivo
Rattus norvegicus [40] = test: Biodistribution in Sprague-Dawley rat urinary bladder at 37 to 111 MBq, iv measured at 2 hrs by gamma counting analysis; format: ADME, organism-based; conditions: in vivo
[41] = Biodistribution in Sprague-Dawley rat urine at 37 to 111 MBq, iv measured at 2 hrs by gamma counting analysis; format: ADME, organism-based; conditions: in vivo
[42] = Biodistribution in Sprague-Dawley rat urine at 37 to 111 MBq, iv measured at 24 hrs by gamma counting analysis; format: ADME, organism-based; conditions: in vivo
Spleen [43] = test: Biodistribution in Sprague-Dawley rat spleen at 37 to 111 MBq, iv measured at 2 hrs by gamma counting analysis; format: ADME, organism-based; conditions: in vivo
[44] = Ratio of drug level in heart to lung in Sprague-Dawley rat at 37 to 111 MBq, iv measured at 2 hrs; conditions: in vivo
[45] = Ratio of drug level in heart to lung in Sprague-Dawley rat at 37 to 111 MBq, iv measured at 24 hrs; conditions: in vivo
[46] = Ratio of drug level in heart to liver in Sprague-Dawley rat at 37 to 111 MBq, iv measured at 2 hrs; conditions: in vivo
[47] = Ratio of drug level in heart to liver in Sprague-Dawley rat at 37 to 111 MBq, iv measured at 24 hrs; conditions: in vivo

COc1cc2c(cc1OC)[C@@H]1C(=O)c3ccc4c(c3O[C@@H]1CO2)C[C@H](C(C)(O)C[123I])O4 (some centres not stated)
Drug uptake [1]: Active | Drug uptake [2]: Active | Drug uptake [3]: Active | Drug uptake (Thyroid gland [4]): Active | Drug uptake (Liver [5]): Not Active | Drug uptake (Lung [6]): Not Active | Drug uptake [7]: Active | Kp at 24 h [8]: 0.79 | Drug uptake (Thyroid gland [9]): 3.16 %ID | Drug uptake (Thyroid gland [10]): 13.329 % ID/g | Drug uptake (Rattus norvegicus [11]): 2.121 % ID/g | Drug uptake (Ovary [12]): 0.04 % ID/g | Drug uptake (Rattus norvegicus [13]): 0.04 % ID/g | Drug uptake (Lung [14]): 0.055 % ID/g | Drug uptake (Heart [15]): 0.045 % ID/g | Drug uptake (Kidney [16]): 0.044 % ID/g | Drug uptake (Intestine [17]): 0.122 % ID/g | Drug uptake (Brain [18]): 0.003 % ID/g | Drug uptake (Blood [19]): 0.06 % ID/g | Drug uptake (Spleen [20]): 0.032 % ID/g | Drug uptake (Muscle tissue [21]): 0.024 % ID/g | Drug uptake (Femur [22]): 0.025 % ID/g | Drug uptake (Liver [23]): 0.042 % ID/g | Drug uptake (Rattus norvegicus [24]): 0.768 % ID/g | Kp at 2 h [25]: 8.37 | Drug uptake (Thyroid gland [26]): 0.334 %ID | Drug uptake (Thyroid gland [27]): 1.368 % ID/g | Drug uptake (Rattus norvegicus [28]): 3.263 % ID/g | Drug uptake (Ovary [29]): 0.22 % ID/g | Drug uptake (Rattus norvegicus [30]): 0.22 % ID/g | Drug uptake (Lung [31]): 0.502 % ID/g | Drug uptake (Heart [32]): 2.01 % ID/g | Drug uptake (Kidney [33]): 0.7 % ID/g | Drug uptake (Intestine [34]): 0.846 % ID/g | Drug uptake (Brain [35]): 0.098 % ID/g | Drug uptake (Blood [36]): 0.257 % ID/g | Drug uptake (Muscle tissue [37]): 0.357 % ID/g | Drug uptake (Femur [38]): 0.242 % ID/g | Drug uptake (Liver [39]): 0.709 % ID/g | Drug uptake (Rattus norvegicus [40]): 0.918 % ID/g | Drug uptake [41]: 0.918 % ID/g | Drug uptake [42]: 0.768 % ID/g | Drug uptake (Spleen [43]): 0.234 % ID/g | Ratio [44]: 4.11 | Ratio [45]: 0.85 | Ratio [46]: 2.98 | Ratio [47]: 1.08
